Values quoted from earlier work, collected in patent US20230210738A1, “Low-Skin Irritating Deodorant Composition And A Method For Preparing Thereof” (Sislan (Zhuhai) Pharmaceutical Technology Co. Ltd., priority 2021, published 2023).

Experiments:
[1] = tested on: bacteria; settings: hexamine prepared in basic condition
[2] = hexamine as weak base

C1N2CN3CN1CN(C2)C3 [hexamine, hexamethylenetetramine]
antibacterial effect [1]: capable of demonstrating an antibacterial effect | neutralization of odoriferous, volatile organic acids [2]: able to neutralize a number of odoriferous, volatile organic acids
